System: wild-type (WT) murine embryonic fibroblasts (MEFs)
Assay: Untargeted LC/MS/MS proteomics of EVs from WT MEFs exposed 24 hours to drug, compared with untreated WT MEFs
Format: cell-based, mouse
Experimental: Methods for isolation and purification of exosomes and extracellular vesicles (EV) were extensively reviewed. Experiments were performed to arrive at a robust and reproducible protocol. The protocol used herein is that set forth in Théry et al, 2006, which is incorporated by reference for it teaching of this protocol. This protocol involves depleting serum-derived EVs from cell culture media by overnight ultracentrifugation and exchanging media for 1% FBS EV-depleted media. Media is then collected from cells following a 24-hour conditioning period and EVs are isolated by 18-hour ultracentrifugation at 100,000 g (FIG. 1A).
EVs were isolated from media of cultured murine embryonic fibroblasts (MEFs) prepared in-house according to protocols described by Xu 2005 from DYT1 knockin mice (Tor1a^delGAG/+) (Goodchild R E, et al. (2005) Neuron. 48:923-932) and littermate wild-type (WT) controls. The cultured MEFs from the DYT1 mice were exposed for 24 hours to Ritonavir (RTV) while the MEFs from WT mice were exposed to vehicle, ISRIB, or Salubrinal (SAL). The EVs isolated from these WT cells and DYT1 were characterized by untargeted proteomics and RNA-seq to identify differentially expressed proteins and RNAs as candidate biomarkers. Experimenter and Proteomics core staff were blinded to genotype of cell cultures throughout preparation and analysis phases. EV isolation was confirmed by Western immunoblot documenting presence of the exosomal marker (TSG101) and absence of the endoplasmic reticulum (ER) marker (CANX) (FIG. 1B (Cohort 1) and FIG. 1C (Cohort 2)).
Following the bicinchoninic acid assay (BCA) analysis and Western immunoblot of a portion of samples for QC, 11.6 μg-129.2 μg of EV protein lysates in RIPA buffer were sent to the Duke Proteomics and Metabolomics Shared Resource core facility for LC/MS/MS quantitative proteomic analysis. Samples were first normalized to 20 μg and spiked with undigested casein at a total of 40 fmol/μg, 80 fmol/μg, or 160 fmol/μg, then reduced with 10 mM dithiolthreitol for 30 minute at 80° C. and alkylated with 20 mM iodoacetamide for 30 minutes at room temperature. Next, the samples were supplemented with a final concentration of 1.2% phosphoric acid and 741 μL of S-Trap (Protifi) binding buffer (90% MeOH/100 mM […]). Proteins were trapped on the S-Trap, digested using 20 ng/μL sequencing grade trypsin (Promega) for 1 hour at 47° C., and eluted using 50 mM TEAB, followed by 0.2% FA, and lastly using 50% CAN/0.2% FA. All samples were then lyophilized to dryness and resuspended in 40 μL 1% TFA/2% acetonitrile containing 12.5 fmol/μL yeast alcohol dehydrogenase (ADH_YEAST). A QC Pool was created from 3 uL of each sample. All QC Pools were run periodically throughout the acquisition period.
Quantitative LC/MS/MS was performed on 2 μL of each sample, using a nanoAcquity UPLC system (Waters Corp) coupled to a Thermo Orbitrap Fusion Lumos high resolution accurate mass tandem mass spectrometer (Thermo) via a nanoelectrospray ionization source. Briefly, the sample was first trapped on a Symmetry C18 20 mm×180 μm trapping column (5 μL/min at 99.9/0.1 v/v water/acetonitrile), after which the analytical separation was performed using a 1.8 μm Acquity HSS T3 C18 75 μm×250 mm column (Waters Corp.) with a 90 minute linear gradient of 5% to 30% acetonitrile with 0.1% formic acid at a flow rate of 400 nanoliters/minute (nL/min) with a column temperature of 55° C. Data collection on the Fusion Lumos mass spectrometer was performed in a data-dependent acquisition (DDA) mode of acquisition with a r=120,000 (@ m/z 200) full MS scan from m/z 375-1500 with a target AGC value of 2e5 ions. MS/MS scans were acquired at Rapid scan rate (Ion Trap) with an AGC target of 5e3 ions and a max injection time of 100 ms. The total cycle time for MS and MS/MS scans was 2 seconds. A 20 second dynamic exclusion was employed to increase depth of coverage. The total analysis cycle time for each sample injection was approximately 2 hours. […]

Measured: ISRIB Direction Same as dE?

O=C(COc1ccc(Cl)cc1)NC1CCC(NC(=O)COc2ccc(Cl)cc2)CC1 (stereo not shown) [ISRIH]
yes: EV protein: 26S proteasome non-ATPase regulatory subunit 8 | EV protein: 60S [?] subunit biogenesis protein [?] homolog | EV protein: 116 kDa [?] small nuclear ribonucleoprotein component | EV protein: AP-3 complex subunit [?] | EV protein: ATP- binding cassette sub-family [?] member 1 | EV protein: ATP-dependent RNA helicase [?] | EV protein: Acetyl-CoA carboxylase 1 | EV protein: Acyl-protein thioesterase 2 | EV protein: Anaphase-promoting complex subunit 2 | EV protein: Anaphase-promoting complex subunit 4 | EV protein: Anaphase-promoting complex subunit 5 | EV protein: Anaphase-promoting complex subunit 7 | EV protein: Apolipoprotein M | EV protein: Cell [?] cycle protein [?] homolog | EV protein: Cell division cycle protein 27 homolog | EV protein: Coiled-coil domain-containing protein 22 | EV protein: Cullin-2 | EV protein: Cullin-5 | EV protein: Cullin-7 | EV protein: Cytosolic purine [?] -nucleotidase | EV protein: DNA [?] (r264) | EV protein: DNA [?] licensing factor MCM4 | EV protein: DNA ligase 1 | EV protein: DNA replication licensing factor MCM5 | EV protein: DNA replication licensing factor [?] | EV protein: DNA-directed RNA polymerase II subunit RPB1 | EV protein: DNA-directed RNA polymerase II subunit RPB2 | EV protein: DNA-directed RNA polymerase II subunit RPB3 | EV protein: DNA-directed RNA polymerase [?] subunit RPA2 | EV protein: DNA-directed RNA polymerases I, II, and III subunit RPABC3 | EV protein: DNA-directed RNA polymerases I, II, and III subunit [?] | EV protein: Developmentally-regulated GTP-binding protein 2 | EV protein: Double-strand-break repair protein rad21 homolog | EV protein: Dual specificity mitogen-activated protein kinase kinase 4 | EV protein: Dynactin subunit 4 | EV protein: E3 ubiquitin-protein ligase [?] | EV protein: Elongin-B | EV protein: Exosome complex exonuclease RRP44 | EV protein: Gamma-tubulin complex component 2 | EV protein: Glucose-6-phosphate 1-dehydrogenase [?] | EV protein: Glycosylated lysosomal membrane protein | EV protein: Glycylpeptide N-tetradecanoyltransferase 1 | EV protein: Golgi reassembly-stacking protein 2 | EV protein: Histone-arginine methyltransterase CARM1 | EV protein: Immunity-related GTPase family M protein 1 | EV protein: Interleukin enhancer-binding factor 3 | EV protein: Leucyl-cystinyl aminopeptidase | EV protein: Lysine-specific histone demethylase [?] | EV protein: Mediator [?] RNA polymerase II transcription subunit 23 | EV protein: Metastasis-associated protein [?] (r222) | EV protein: Metastasis-associated protein [?] (r261) | EV protein: Methyl-CpG-binding domain protein [?] | EV protein: Microtubule-associated protein [?] | EV protein: N-alpha-acetyltransferase 10 | EV protein: Nuclear [?] complex protein [?] | EV protein: Nuclear cap-binding protein subunit 1 | EV protein: NudC domain-containing protein 1 | EV protein: Phosphoribosyl pyrophosphate synthase-associated protein 1 | EV protein: Probable ubiquitin carboxyl-terminal hydrolase [?] | EV protein: Protein O-GlcNAcase | EV protein: Protein RMD5 homolog A | EV protein: Protein [?] 14 homolog | EV protein: Protein transport protein [?] | EV protein: Ran-binding protein 10 | EV protein: Ribosome biogenesis protein BOP1 | EV protein: Ribosome production factor 2 homolog | EV protein: Serine threonine-protein phosphatase 2A 56 kDa regulatory subunit gamma isoform | EV protein: Serine threonine-protein phosphatase 6 catalytic subinit | EV protein: Sorting nexin-1 | EV protein: Splicing factor 3B subunit 4 | EV protein: Structural maintenance of [?] protein 2 | EV protein: WASH complex subunit 5 | EV protein: WD repeat-containing protein [?] | EV protein: WW domain-binding protein 2 | EV protein: [?] 2 (r185) | EV protein: [?] (r186) | EV protein: [?] -1 (r187) | EV protein: [?] -1 (r232) | EV protein: [?] -conjucating enxyme [?] | EV protein: [?] -promoting complex subunit 1 | EV protein: [?] -related [?] -associated actin-dependent regulator [?] chromatin subfamily A member 5 | EV protein: [?] complex subunit 2 | EV protein: [?] kinase | EV protein: [?] repeat-containing protein 5A | EV protein: [?] small nuclear ribonucleoprotein 40 kDa protein | EV protein: [?] small nucleolar RNA-associated protein 15 homolog | EV protein: [?] ubiquitin-protein ligase [?] | EV protein: p21-activated protein kinase-interacting protein 1 | EV protein: transportin-3 | WT MEF EVs, protein: DNA replication licensing factor MCM6 | WT MEF EVs, protein: DNA-directed RNA polymerases I and III subunit RPAC1 | WT MEF EVs, protein: Protein arginine N-methyltransferase 3 | WT MEF EVs, protein: Scavenger receptor class B member 1 | WT MEF EVs, protein: Serine threonine-protein phosphatase 2A 55 kDa regulatory subunit B alpha isoform | WT MEF EVs, protein: Small nuclear ribonucleoprotein-associated protein B | WT MEF EVs, protein: WASH complex subunit 4 | WT MEF EVs, protein: WD repeat-containing protein 26

Source: patent US20230332232A1, “COMPOSITIONS AND METHODS FOR DIAGNOSING AND TREATING A DYSTONIA” (Duke University, priority 2020, published 2023)
